Data on five compounds can be found in patent publication US6682545B1, “System and device for preventing restenosis in body vessels” (The Penn State Research Foundation, priority 1999, dated 2004).

Entries after “also recorded” stand apart in the source; their conditions may differ.

The test system of one data set is neointimal hyperplasia. Kind of data set: Angioplasty-induced injury, other cell-permeable ceramide derivatives. Particulars: in vivo. The source says:
Other cell-permeable ceramide derivatives can also limit neointimal hyperplasia.

Data set [1] deals with A7r5 aortic smooth muscle cells. The following applies: cited from earlier work.
For data set [2], the system named is restenotic lesions after balloon angioplasty. Description: Restenosis after balloon angioplasty, ceramide delivered in solution by infusion-type catheter. The data set is classed as in vivo. The source says:
It is noted that infusion-type catheters have the advantage to deliver ceramide in a BSA vehicle at a discrete dose to the site of arterial injury. It was thus determined whether ceramide delivered by solution using an infusion-type catheter is also effective in reducing restenosis as ceramide delivered using a catheter with a gel coated balloon tip. The balloon at the tip of a 4F arterial bilumen irrigation embolectomy catheter was inflated to a diameter equivalent to that of the earlier experiments. Three infusions of 10 μM C6-ceramide for 1 minute each reduced restenosis after balloon angioplasty by 39%. Dihydro-C6-ceramide at an equivalent dose had no effect upon restenotic lesions. These studies further support the novelty and efficacy of ceramide-coated balloon catheters as intra-arterial site-specific delivery devices.

Data set [3] deals with neointimal hyperplasia in rabbit carotid arteries. Kind of data set: Restenosis after balloon angioplasty with ceramide-coated embolectomy catheter balloon. The data set is classed as in vivo, New Zealand white rabbits. Particulars: rabbit carotid artery, 2 weeks post balloon injury. The source says: Experiments were designed to evaluate the therapeutic potential of ceramide-coated embolectomy catheters upon restenosis after balloon angioplasty. Initial studies assessed the extent of restenosis in rabbit carotid arteries after balloon angioplasty as a function of time. Animals were sacrificed 1, 2, 4 and 6 weeks after balloon injury. Marked neointimal hyperplasia was observed as early as 1 week and peaked at 4 weeks (FIG. 2A). […] FIGS. 2B-E illustrate hematoxylin and eosin stained cryostat sections of rabbit carotid arteries. […] Furthermore, it may be theorized that the effects of ceramide are due to biochemical actions and not lipophilic properties.
Initial experiments optimized the methods to induce restenosis after angioplasty in carotid arteries from New Zealand white rabbits. Twenty-one rabbits were divided into three experimental groups, undergoing either balloon angioplasty with a vehicle-treated catheter, a C6-ceramide-treated catheter or a dihydro-C6-ceramide-treated catheter. Each rabbit underwent identical procedures to denude the common carotid artery of endothelium and establish the cellular conditions to promote restenosis. The right common carotid served as the sham control while the left carotid served as the experimental side. […] FIG. 2A represents the time course of restenosis after angioplasty while FIGS. 2B-2E depict representative H/E stained sections. […] The scale for these photomicrographs is 200 microns. FIG. 2F quantifies the extent of restenotic lesions.

A further data set relates to PKBα. Kind of data set: PKBα phosphorylation in excised carotid arteries after angioplasty (Western blot). The data set is classed as in vivo. Particulars: ceramide-coated balloon angioplasty, rabbit carotid arteries. On the procedure:
(§1) Thus, to elucidate mechanisms by which ceramide prevents restenosis, the phosphorylation states of ERK2 and PKBα were investigated using freshly excised carotid arteries after angioplasty (FIG. 5). Phosphorylation of ERK2 and PKBα were increased at 15 minutes and 24 hours post-balloon injury. The sustained phosphorylation of these kinases most likely reflects continuous remodeling of damaged arteries. […] Thus, acute ceramide therapy may directly modulate kinases or regulate putative ceramide-activated protein phosphatases that down-regulate these signaling pathways.
(§2) Specifically, in FIG. 5, ERK2 and PKBα phosphorylation was diminished after ceramide-coated balloon angioplasty in rabbit carotid arteries. Panel A depicts a representative Western blot for ERK-2 and PKBα probed using phosphorylation-specific antibodies. Lysates from NIH3T3 cells treated with or without PDGF were used as positive and negative controls, respectively. This immunoblot is representative of similar experiments using a total of 8 animals. Panels B-C quantifies the immunoblot data.

A short description of data set [4]: Ceramide transfer from balloon catheter to carotid artery ([3H]C6-ceramide tracer, TLC, in situ autoradiography). The data set is classed as in vivo, rabbit. The protocol:
The inability of experimentally effective therapies to succeed in clinical trials is often the consequence of sub-optimal doses of therapeutics being delivered to the site of injury for the appropriate duration. Moreover, the efficacy of therapy may be a consequence of biomechanical force transferring ceramide from the inflated balloon to the site of vascular lesions. Therefore, experiments were conducted to quantify ceramide transfer between the balloon and the carotid artery; the pharmacokinetics of ceramide transfer and delivery from the balloon catheter to the damaged artery was assessed. Using [^3H]C6-ceramide as a tracer, it was calculated that 70±10 nmol of C6-ceramide was applied to the balloon as a gel from a solution of 5 μmol of C6-ceramide. […] This translates to roughly 58 nmol of C6-ceramide being transferred from the balloon catheter during the angioplasty procedure. To test whether inflation of the balloon within the carotid artery was essential for optimal transfer of the ceramide, the surgical procedure was performed using noninflated balloons. The recovered ceramide mass on the inserted but noninflated balloon was 14±3 nmol. Rabbit carotid arteries treated with radiolabeled lipid were homogenized, and lipid products were separated by thin-layer chromatography (TLC) (FIG. 3A). The mass of intact ceramide isolated 15 minutes after angioplasty was 2.7±0.4 nmol for inflated balloon treatments and 0.7±0.2 nmol for noninflated balloon treatments. […] As the transferred ceramide was initially delivered to 0.0365 cm^3 of carotid artery luminal volume, the effective concentration of ceramide at the site of balloon injury is estimated to be 1.5 mmol/L. Thus, an effective and reproducible dose of ceramide can be delivered to the damaged artery as a consequence of the balloon inflation.
In situ autoradiography was utilized to document arterial penetrance for [^3H]C6-ceramide transferred from the balloon catheter after angioplasty (FIGS. 3B through 3D). […] This increase in pixel intensity reflects an increase in intact ceramide, as at this time point 89±4% of the radiolabel comigrates with authentic C6-ceramide standards. Pixel intensity was more intense in inflated (panel C) versus noninflated (panel D) arteries. Expressed as pixel density per square millimeter for 10 randomly selected blocks with background values subtracted, medial staining was increased 4.7±0.2-fold for ceramide-coated inflated versus noninflated balloons. Again, this supports the conclusion that balloon inflation leads to maximal delivery and penetrance.
The degradation of the rapidly intercalated radiolabeled ceramide by TLC was also assessed. For the 15-minute postangioplasty time point, 89±4% of the TLC-separated lipid comigrated with authentic C6-ceramide standards. This corresponded to a recovered mass of 2.7±0.4 mnol of ceramide. At 60 minutes after angioplasty, 1.3±0.6 nmol of ceramide was recovered. Thus, 50% radiolabel can still be recovered as intact ceramide in 1 hour. This decrease in ceramide mass corresponded to an increase in TLC-separated gangliosides and cerebrosides but not sphingosines.

Another data set concerns ERK2. Kind of data set: ERK2 phosphorylation in excised carotid arteries after angioplasty (Western blot). Particulars: ceramide-coated balloon angioplasty, rabbit carotid arteries. The data set is classed as in vivo. The protocol: as §1, §2
In data set [5] the test system is restenosis / thrombus formation. Description: Anticoagulation therapy (Lovenox) and thrombus formation with ceramide balloon angioplasty. The data set is classed as in vivo. Particulars: ceramide-treated balloon angioplasty. The source says: To prevent thrombus formation, patients routinely receive anti-coagulants prior to percutaneous transluminal coronary angioplasty. Thus, the consequences of anticoagulation therapy on the effectiveness of ceramide therapy were investigated.

Data set [6] concerns rat glomerular mesangial cells. The following applies: cited from earlier work.
For data set [7], the system named is PCNA positive vascular smooth muscle cells. Kind of data set: PCNA immunohistochemistry of carotid arteries after angioplasty. The data set is classed as in vivo, rabbit. The following applies: neointimal layer, coated balloon-injured carotid artery (balloon-injured 2.8%±0.1%, control 0.2%±0.1%). An excerpt:
The effects of ceramide treatment upon VSM cell growth in vivo were also investigated. Imunohistochemical techniques were employed to identify VSM using smooth muscle cell-specific actin antibody (FIGS. 4A-B) and cell growth using proliferating cell nuclear antigen (PCNA) antibody (FIGS. 4C-F). […] PCNA is synthesized in early G1 and S phases of the cell cycle, and thus can be used as a marker for cell proliferation. In FIGS. 4C-F, representative photomicrographs depicting PCNA positive staining are shown for control, balloon-injured, ceramide-treated and dihydroceramide-treated carotid arteries, respectively. […] C6-ceramide (0.6%±0.2%) but not dihydro-C6-ceramide (1.9%±0.3%) diminished the number of PCNA positive cells in the neointimal layer but not in the medial layer of the carotid artery.
Specifically, in FIG. 4, ceramide-treated catheters reduced PCNA expression in vascular smooth muscle cells after angioplasty. Smooth muscle actin expression was analyzed by immunohistochemistry utilizing a monoclonal anti-alpha smooth muscle antibody, and PCNA positive cell numbers were assessed with a primary mouse monoclonal IgG2a antibody for PCNA. […] These immunohistochemical micrographs are representative of four separate experiments. […]

For data set [8], the system named is primary VSM isolated from rabbit carotid arteries. Description: Apoptosis by fluorescence-activated cell sorting after propidium iodide staining. The data set is classed as cell-based. The following applies: 100 nM. An excerpt:
Ceramide treatment correlated with growth arrest at G0G1and not apoptosis in these smooth muscle-like pericytes. […] Thus, the therapeutic efficacy of cell-perneable ceramide in restenosis includes its ability to arrest VSM growth without inducing significant apoptosis.

Where [9] appears, read: 15 minutes after angioplasty, inflated balloon.

Take `CCCCCCCCCCCCC/C=C/[C@@H](O)[C@H](CO)N(C)C` [dimethylsphingosine]: in the data set on neointimal hyperplasia, the “effect on angioplasty-induced injury” value was “effective in limiting angioplasty-induced injury”.
With `CCCCCCCCCCCCC/C=C/[C@@H](O)[C@H](CO)NC(=O)CCCCC` [C6-ceramide], the “effect on tyrosine kinase receptor- and G-protein receptor-linked mitogenesis” value in data set [1] and in data set [6] was “inhibit” in each case. In addition, the “reduction of restenosis after balloon angioplasty” value in data set [2] (three infusions of 10 μM for 1 minute each, BSA vehicle) was 39%. Further, the “effect on neointimal hyperplasia / restenosis after balloon injury” value in [3] is “significantly reduced the neointimal hyperplasia; also recorded: blocked neointimal hyperplasia”. For the same compound, the “inhibition of balloon-induced neointimal formation (reduction of the neointimal/medial ratio)” value in data set [3] is 92%. For the same compound, the “phosphorylation state of PKBα” value in the data set on PKBα is recorded as “reduced below basal activation levels; also recorded: diminished”. Besides, the “effective concentration of ceramide at the site of balloon injury” value in data set [4] (0.0365 cm^3 carotid artery luminal volume) was approximately 1.5 mmol/L. Further, the “recovered mass of ceramide” value worked out at 2.7±0.4 mnol in [4] (15-minute postangioplasty time point) and 1.3 ± 0.6 nmol in [4] (60 minutes after angioplasty). The “radiolabel comigrating with authentic C6-ceramide standards (TLC)” value in data set [4] (15 minutes after angioplasty) was determined as 89±4%. Moreover, the “mass of intact ceramide isolated from carotid artery” value is 2.7 ± 0.4 nmol in data set [4] (setting [9]) and 0.7 ± 0.2 nmol in data set [4] (15 minutes after angioplasty, noninflated balloon). In addition, the “amount remaining on the balloon” value in [4] (after insertion and inflation) was 12 ± 2 nmol. Also, the “amount applied to the balloon as a gel” value in [4] (from a solution of 5 μmol of C6-ceramide, [3H] tracer) stood at 70 ± 10 nmol. In addition, the “radiolabel recovered as intact ceramide” value in [4] (in 1 hour) came to 50%. The “amount transferred from the balloon catheter during angioplasty” value in data set [4] (inflated balloon) is reported as “roughly 58 nmol”. The “recovered ceramide mass on the balloon” value in [4] (inserted but noninflated balloon) is 14 ± 3 nmol. The “phosphorylation state of ERK2” value in the data set on ERK2 is “reduced below basal activation levels; also recorded: diminished”. Moreover, in data set [5], the thrombus formation result is reported as “Neither ceramide- nor vehicle-treated balloon angioplasty induced thrombus formation”. In addition, the “percentage of PCNA positive cells” value in [7] is listed as 0.6%±0.2%.
Turning to `C=C1[C@@H](O)[C@@H]2O[C@]3(CC[C@H](/C=C/[C@@H](C)[C@@H]4CC(C)=C[C@@]5(O[C@H](C[C@@](C)(O)C(=O)O)CC[C@H]5O)O4)O3)CC[C@H]2O[C@@H]1[C@@H](O)C[C@H](C)[C@H]1O[C@@]2(CCCCO2)CC[C@H]1C` [okadaic acid], the apoptosis in data set [8] (24 hours) is 52%; in [8] (40 hours) it was 69%±2%.
As to [^3H]C6-ceramide [reference compound], in data set [4] (15 minutes after angioplasty), the “radiolabel comigrating with authentic C6-ceramide standards (TLC)” value turned out to be 89±4%. For the same compound, the “arterial penetrance (in situ autoradiography)” value in [4] (setting [9]) is on record as “observed throughout the medial layers of the artery”. Moreover, the “increase in medial staining (pixel density per square millimeter), inflated versus noninflated balloons” value in data set [4] (autoradiography, 10 randomly selected blocks, background subtracted) is 4.7±0.2 fold.
Consider `CCCCCCCCCCCCCCC[C@@H](O)[C@H](CO)NC(=O)CCCCC` [dihydro-C6-ceramide, reference compound], for which the “effect upon restenotic lesions” value in data set [2] (equivalent dose) is listed as “had no effect”. Further, the figures for the “effect on neointimal hyperplasia / restenosis after balloon injury” value in data set [3] and in data set [3] (listed as dihydro-CC6-ceramide) were “did not reduce restenosis” and “not”, respectively. In [7], the “percentage of PCNA positive cells” value is recorded as 1.9%±0.3%.
